According to patent publication US20140242093A1, “METHODS AND COMPOSITIONS FOR MODULATING THE INNATE IMMUNE RESPONSE AND/OR MYOGENESIS IN A MAMMALIAN SUBJECT” (FRED HUTCHINSON CANCER RESEARCH CENTER, priority 2011, published 2014):

Test system: control human primary myoblasts
Assay: Expression microarray of primary myoblasts transduced with lentivirus carrying DUX4-fl, DUX4-s or GFP
Procedure: Primary human myoblasts were collected and cultured as previously described (Snider et al., 2010). Primary myoblasts were maintained at or below 70% confluency for proliferation. For differentiation, cells were allowed to reach 95-100% confluency in growth medium. Once confluency was reached, the cells were changed to differentiation medium (F10 media supplemented with 1% horse serum, 10 μg/mL insulin, and 10 μg/mL transferrin, penicillin/streptomycin) and maintained for 4 days. Human RD cells were grown in DMEM in 10% bovine calf serum (Hyclone) and penicillin/streptomycin. The primary myoblasts were transduced with lentivirus carrying DUX-fl, DUX4- or GFP (MOI=15).
Expression microarrays were performed on the transduced cells at 24 hours after transduction as follows. […] Samples were analyzed by Illumina Human Whole Genome microarrays. Probe intensities were corrected, normalized, and summarized by the Lumi package of Bioconductor (Du et al., 2008). Differentially expressed genes were identified by the LIMMA package of Bioconductor (Wettenhall and Smyth, 2004). Gene set enrichment analysis (GSEA) was performed using the Bioconductor GOstats package (Falcon and Gentleman, 2007).

Substance: DUX4-fl: full-length DUX4 protein (SEQ ID NO:110), expressed from lentiviral or pCS2 vectors or in vitro translated
- MT1A expression fc (cultured human skeletal muscle): −1.526
- MT2A expression fc (cultured human skeletal muscle): −1.443
- MUC1 expression fc (cultured human skeletal muscle): −1.74
- MYBPHL expression fc (cultured human skeletal muscle): −1.492
- MYF5 expression fc (cultured human skeletal muscle): −1.587
- MYH13 expression fc (cultured human skeletal muscle): −1.441
- NACC2 expression fc (cultured human skeletal muscle): −1.787
- NFIL3 expression fc (cultured human skeletal muscle): −1.823
- NFKB1 expression fc (cultured human skeletal muscle): −1.512
- NFKBIZ expression fc (cultured human skeletal muscle): −1.572
- NINJ1 expression fc (cultured human skeletal muscle): −1.694
- NPTX2 expression fc (cultured human skeletal muscle): −1.386
- NRXN2 expression fc (cultured human skeletal muscle): −1.627
- NT5E expression fc (cultured human skeletal muscle): −1.558
- OCEL1 expression fc (cultured human skeletal muscle): −1.412
- P2RX6 expression fc (cultured human skeletal muscle): −1.475
- PARP3 expression fc (cultured human skeletal muscle): −1.483
- PCK2 expression fc (cultured human skeletal muscle): −1.776
- PCTK3 expression fc (cultured human skeletal muscle): −1.641
- PDK4 expression fc (cultured human skeletal muscle): −1.521
- PDPN expression fc (cultured human skeletal muscle): −1.623
- PFKFB4 expression fc (cultured human skeletal muscle): −1.865
- PHF15 expression fc (cultured human skeletal muscle): −1.415
- PHLDA3 expression fc (cultured human skeletal muscle): −1.557
- PLA2G4C expression fc (cultured human skeletal muscle): −1.429
- PLEKHA4 expression fc (cultured human skeletal muscle): −1.457
- PLIN2 expression fc (cultured human skeletal muscle): −1.413
- PLXNB1 expression fc (cultured human skeletal muscle): −1.442
- PLXNB2 expression fc (cultured human skeletal muscle): −1.649
- PPAP2B expression fc (cultured human skeletal muscle): −1.742
- PPP3CC expression fc (cultured human skeletal muscle): −1.457
- PRDM1 expression fc (cultured human skeletal muscle): −1.573
- PRKCD expression fc (cultured human skeletal muscle): −1.531
- PSMB10 expression fc (cultured human skeletal muscle): −1.6
- PSME2 expression fc (cultured human skeletal muscle): −1.477
- PTGES expression fc (cultured human skeletal muscle): −1.632
- PTPRU expression fc (cultured human skeletal muscle): −1.477
- RALGDS expression fc (cultured human skeletal muscle): −1.475
- RBCK1 expression fc (cultured human skeletal muscle): −1.636
- RBM43 expression fc (cultured human skeletal muscle): −1.517
- RCAN1 expression fc (cultured human skeletal muscle): −1.566
- RELB expression fc (cultured human skeletal muscle): −1.391
- RGS20 expression fc (cultured human skeletal muscle): −1.478
- RHBDF2 expression fc (cultured human skeletal muscle): −1.741
- RRAS expression fc (cultured human skeletal muscle): −1.405
- RRBP1 expression fc (cultured human skeletal muscle): −1.483
- RTKN expression fc (cultured human skeletal muscle): −1.734
- RTTN expression fc (cultured human skeletal muscle): −1.663
- RUSC1 expression fc (cultured human skeletal muscle): −1.47
- SERPING1 expression fc (cultured human skeletal muscle): −1.668
- SESN1 expression fc (cultured human skeletal muscle): −1.581
- SHISA5 expression fc (cultured human skeletal muscle): −1.763
- SIX5 expression fc (cultured human skeletal muscle): −1.673
- SLC16A3 expression fc (cultured human skeletal muscle): −1.582
- SLC22A18 expression fc (cultured human skeletal muscle): −1.56
- SLC25A28 expression fc (cultured human skeletal muscle): −1.534
- SLC39A14 expression fc (cultured human skeletal muscle): −1.872
- SPTLC3 expression fc (cultured human skeletal muscle): −1.444
- SQSTM1 expression fc (cultured human skeletal muscle): −1.695
- SRGN expression fc (cultured human skeletal muscle): −1.873
- STC1 expression fc (cultured human skeletal muscle): −1.571
- STEAP3 expression fc (cultured human skeletal muscle): −1.405
- SUSD2 expression fc (cultured human skeletal muscle): −1.398
- TAPBP expression fc (cultured human skeletal muscle): −1.844
- TCEA3 expression fc (cultured human skeletal muscle): −1.706
- TCP11L1 expression fc (cultured human skeletal muscle): −1.532
- TMEM45A expression fc (cultured human skeletal muscle): −1.574
- TMEM173 expression fc (cultured human skeletal muscle): −1.816
- TNFAIP2 expression fc (cultured human skeletal muscle): −1.593
- TNFRSF1A expression fc (cultured human skeletal muscle): −1.672
- TNFRSF6B expression fc (cultured human skeletal muscle): −1.678
- TNFSF13B expression fc (cultured human skeletal muscle): −1.763
- TNS3 expression fc (cultured human skeletal muscle): −1.56
- TRAF3IP2 expression fc (cultured human skeletal muscle): −1.529
- TRIP6 expression fc (cultured human skeletal muscle): −1.457
- TRNP1 expression fc (cultured human skeletal muscle): −1.527
- TSC22D3 expression fc (cultured human skeletal muscle): −1.729
- VASN expression fc (cultured human skeletal muscle): −1.76
- VEZF1 expression fc (cultured human skeletal muscle): −1.528
- XBP1 expression fc (cultured human skeletal muscle): −1.679
- ZBTB4 expression fc (cultured human skeletal muscle): −1.417
- ZC3H12A expression fc (cultured human skeletal muscle): −1.546
- ZFHX3 expression fc (cultured human skeletal muscle): −1.762
- ZFP36L2 expression fc (cultured human skeletal muscle): −1.545
- ZFP90 expression fc (cultured human skeletal muscle): −1.609
- ZNF337 expression fc (cultured human skeletal muscle): −1.693
- ZNF395 expression fc (cultured human skeletal muscle): −1.392
- Full.fc (expression fold change for DUX4-fl targets) (gene AVPI1): 2
- Full.fc (expression fold change for DUX4-fl targets) (gene BZW2): 2.7
- Full.fc (expression fold change for DUX4-fl targets) (gene C1orf63): 2.2
- Full.fc (expression fold change for DUX4-fl targets) (gene C6orf191): 2.1
- Full.fc (expression fold change for DUX4-fl targets) (gene C14orf102): 2.5
- Full.fc (expression fold change for DUX4-fl targets) (gene C14orf138): 1.7
- Full.fc (expression fold change for DUX4-fl targets) (gene C21orf91): 1.8
- Full.fc (expression fold change for DUX4-fl targets) (gene CBARA1): 2.1
- Full.fc (expression fold change for DUX4-fl targets) (gene CCNA1): 7.5
- Full.fc (expression fold change for DUX4-fl targets) (gene CCNJ): 2.7
- Full.fc (expression fold change for DUX4-fl targets) (gene CLDN14): 3.1
- Full.fc (expression fold change for DUX4-fl targets) (gene CLK1): 1.8
- Full.fc (expression fold change for DUX4-fl targets) (gene CSE1L): 2.9
- Full.fc (expression fold change for DUX4-fl targets) (gene CTNNAL1): 1.6
- Full.fc (expression fold change for DUX4-fl targets) (gene CTR9): 2.4
- Full.fc (expression fold change for DUX4-fl targets) (gene DBR1): 3.4
- Full.fc (expression fold change for DUX4-fl targets) (gene DDX47): 1.7
- Full.fc (expression fold change for DUX4-fl targets) (gene DEFB103A): 6.4
- Full.fc (expression fold change for DUX4-fl targets) (gene DENND2C): 2.6
- Full.fc (expression fold change for DUX4-fl targets) (gene EGLN1): 1.6
- Full.fc (expression fold change for DUX4-fl targets) (gene EXOSC10): 1.9
- Full.fc (expression fold change for DUX4-fl targets) (gene FAM90A1): 3.6
- Full.fc (expression fold change for DUX4-fl targets) (gene FBXO33): 3.2
- Full.fc (expression fold change for DUX4-fl targets) (gene FRG2B): 2
- Full.fc (expression fold change for DUX4-fl targets) (gene GPBAR1): 1.9
- Full.fc (expression fold change for DUX4-fl targets) (gene GTF2F1): 3.2
- Full.fc (expression fold change for DUX4-fl targets) (gene HOXB2): 2.2
- Full.fc (expression fold change for DUX4-fl targets) (gene JUP): 3.2
- Full.fc (expression fold change for DUX4-fl targets) (gene KDM5B): 1.8
- Full.fc (expression fold change for DUX4-fl targets) (gene KIF21A): 1.8
- Full.fc (expression fold change for DUX4-fl targets) (gene MAPKAP1): 1.6
- Full.fc (expression fold change for DUX4-fl targets) (gene MAST4): 1.7
- Full.fc (expression fold change for DUX4-fl targets) (gene MED13): 1.8
- Full.fc (expression fold change for DUX4-fl targets) (gene NANS): 1.9
- Full.fc (expression fold change for DUX4-fl targets) (gene NFYA): 2.3
- Full.fc (expression fold change for DUX4-fl targets) (gene PABPN1): 2.6
- Full.fc (expression fold change for DUX4-fl targets) (gene PANX2): 3.8
- Full.fc (expression fold change for DUX4-fl targets) (gene PELI1): 2.9
- Full.fc (expression fold change for DUX4-fl targets) (gene PNP): 7
- Full.fc (expression fold change for DUX4-fl targets) (gene PPP2R2B): 4.1
- Full.fc (expression fold change for DUX4-fl targets) (gene PRAMEF12): 7.8
- Full.fc (expression fold change for DUX4-fl targets) (gene PRPF18): 1.7
- Full.fc (expression fold change for DUX4-fl targets) (gene PRR4): 3.6
- Full.fc (expression fold change for DUX4-fl targets) (gene PTP4A1): 1.7
- Full.fc (expression fold change for DUX4-fl targets) (gene PVRL3): 2.2
- Full.fc (expression fold change for DUX4-fl targets) (gene RBBP6): 2
- Full.fc (expression fold change for DUX4-fl targets) (gene RFPL1): 8.4
- Full.fc (expression fold change for DUX4-fl targets) (gene RFPL2): 7.3
- Full.fc (expression fold change for DUX4-fl targets) (gene RFPL4B): 8.3
- Full.fc (expression fold change for DUX4-fl targets) (gene RTN4): 1.6
- Full.fc (expression fold change for DUX4-fl targets) (gene SAMD8): 1.6
- Full.fc (expression fold change for DUX4-fl targets) (gene SEC61A2): 1.8
- Full.fc (expression fold change for DUX4-fl targets) (gene SFRS2B): 4.2
- Full.fc (expression fold change for DUX4-fl targets) (gene SH3GL2): 1.6
- Full.fc (expression fold change for DUX4-fl targets) (gene SIAH1): 3.7
- Full.fc (expression fold change for DUX4-fl targets) (gene SNAI1): 1.9
- Full.fc (expression fold change for DUX4-fl targets) (gene SON): 2.1
- Full.fc (expression fold change for DUX4-fl targets) (gene SPRYD5): 1.8
- Full.fc (expression fold change for DUX4-fl targets) (gene SPTY2D1): 3.3
- Full.fc (expression fold change for DUX4-fl targets) (gene SRRT): 2.6
- Full.fc (expression fold change for DUX4-fl targets) (gene SYNJ1): 2.4
- Full.fc (expression fold change for DUX4-fl targets) (gene TAF4B): 1.9
- Full.fc (expression fold change for DUX4-fl targets) (gene TFIP11): 3.2
- Full.fc (expression fold change for DUX4-fl targets) (gene TRIM43): 8.1
- Full.fc (expression fold change for DUX4-fl targets) (gene TRIM48): 7.9
- Full.fc (expression fold change for DUX4-fl targets) (gene TRIM49L1): 6.9
- Full.fc (expression fold change for DUX4-fl targets) (gene TRIM49L2): 6.9
- Full.fc (expression fold change for DUX4-fl targets) (gene USP29): 2.6
- Full.fc (expression fold change for DUX4-fl targets) (gene ZNF217): 4.1
- Full.fc (expression fold change for DUX4-fl targets) (gene ZNF296): 5.5
- Full.fc (expression fold change for DUX4-fl targets) (gene ZNF705A): 3.9
- Full.fc (expression fold change for DUX4-fl targets) (gene ZSCAN4): 8.3
- Full.fc (expression fold change for DUX4-fl targets) (gene ZSCAN5B): 3.8
- Full.fc (expression fold change for DUX4-fl targets) (gene hCG_1651160): 8.3
